Literature values in patent publication US20060078922A1, “Novel purified polypeptides from haemophilus influenzae” (Affinium Pharmaceuticals, Inc., priority 2003, published 2006).

Molecular target: phosphopantetheine adenyltransferase (Escherichia coli, UniProt P0A6I6)
Conditions: qualitative statement, species not given

phosphopantetheine adenyltransferase, sequence (P0A6I6 whole entry): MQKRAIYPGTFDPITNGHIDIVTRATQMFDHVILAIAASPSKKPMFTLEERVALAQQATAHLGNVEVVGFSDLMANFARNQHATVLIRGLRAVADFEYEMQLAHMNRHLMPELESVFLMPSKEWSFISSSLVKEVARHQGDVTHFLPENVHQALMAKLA

In the case of `CC(C)(COP(=O)(O)OP(=O)(O)OC[C@H]1O[C@@H](n2cnc3c(N)ncnc32)[C@H](O)[C@@H]1OP(=O)(O)O)[C@@H](O)C(=O)NCCC(=O)NCCS` [Coenzyme-A], the “inhibition of phosphopantetheine adenyltransferase” value is listed as “known to inhibit”.
